Reference: BindingDB's records for patent US20240246981 (Boehringer Ingelheim International, 2024)
pIC50: −log10 of the molar value.

Key:
[1] = biological target: Glutaminyl-peptide cyclotransferase-like protein (Homo sapiens, UniProt Q9NXS2); assay: Biochemical QPCT and QPCTL Activity Assay
Experimental: (§1) QPCT or QPCTL dependent conversion of N-terminal glutamine to pyroglutamate of CD47 was monitored via MALDI-TOF MS. Test compounds were dissolved in 100% DMSO and serially diluted into clear 1,536-well microtiter plates. Enzymatic reactions were set up in assay buffer containing 20 mM Tris pH 7.5, 0.1 mM TCEP, 0.01% BSA, and 0.001% Tween20. […] The plates were incubated for 10 min in a humidified incubator at 24° C. Subsequently, 2.5 μL of CD47 peptide substrate surrogate (19[…]33) was added to each well (final concentration: 10 μM for QPCTL/20 μM for QPCT). The plates were mixed for 30 sec at 1,000 rpm and subsequently incubated for 40 min in a humidified incubator at 24° C. […] The plates were sealed with an adhesive foil, mixed for 30 s at 1,000 rpm and stored at room temperature until preparation of the MALDI target plates. MALDI target plates were prepared as described previously.

[2] = biological target: Glutaminyl-peptide cyclotransferase (Homo sapiens, UniProt Q16769); assay: Biochemical QPCT and QPCTL Activity Assay
Chain of Glutaminyl-peptide cyclotransferase (Q16769 whole entry): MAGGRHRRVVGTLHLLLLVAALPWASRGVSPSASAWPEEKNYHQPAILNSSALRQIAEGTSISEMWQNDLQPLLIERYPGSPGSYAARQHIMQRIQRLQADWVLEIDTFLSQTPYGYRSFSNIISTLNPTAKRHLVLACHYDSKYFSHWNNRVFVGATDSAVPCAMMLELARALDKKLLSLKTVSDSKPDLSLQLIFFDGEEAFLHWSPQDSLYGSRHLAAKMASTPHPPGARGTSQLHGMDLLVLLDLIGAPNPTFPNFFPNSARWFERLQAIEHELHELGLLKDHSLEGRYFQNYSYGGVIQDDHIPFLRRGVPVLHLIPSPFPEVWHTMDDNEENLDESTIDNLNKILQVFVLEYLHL
Experimental: as §1

Chain of Glutaminyl-peptide cyclotransferase-like protein (Q9NXS2 whole entry): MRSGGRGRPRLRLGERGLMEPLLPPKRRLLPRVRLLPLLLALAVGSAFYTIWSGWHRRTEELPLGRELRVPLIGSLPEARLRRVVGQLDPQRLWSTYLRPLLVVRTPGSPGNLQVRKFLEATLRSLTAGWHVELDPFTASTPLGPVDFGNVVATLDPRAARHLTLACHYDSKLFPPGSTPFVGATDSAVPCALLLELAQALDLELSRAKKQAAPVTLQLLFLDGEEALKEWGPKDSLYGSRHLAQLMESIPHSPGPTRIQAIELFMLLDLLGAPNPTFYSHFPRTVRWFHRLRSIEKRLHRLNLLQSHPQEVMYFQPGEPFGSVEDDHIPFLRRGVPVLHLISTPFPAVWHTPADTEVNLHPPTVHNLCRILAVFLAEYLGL

| Compound | pIC50 [1] | pIC50 [2] |
| --- | --- | --- |
| Cn1cnnc1C1(C)CCN(c2c(C#N)cccc2-c2cccnc2)CC1 [US20240246981, Example 65] | 7.59 | 8.05 |
| Cn1cnnc1C1(F)CCN(c2c(C#N)cccc2-c2cnc3nn(CC(F)(F)F)cc3c2)CC1 [US20240246981, Example 55] | 9.00 |  |
| Cn1cnnc1C1CCN(c2c(C#N)cccc2-c2cnc(F)c(OC3CCC3)c2)CC1 [US20240246981, Example 34] | 9.00 | 8.22 |
| Cn1cnnc1C1CCN(c2c(C#N)cccc2-c2cnc(F)c(Oc3ccccc3)c2)CC1 [US20240246981, Example 38] | 7.89 |  |
| Cn1cnnc1C1CCN(c2c(C#N)cccc2-c2cncc(-c3ccccc3)c2)CC1 [US20240246981, Example 21] | 7.30 | 6.71 |
| Cn1cnnc1C1CCN(c2c(C#N)cccc2-c2cnc3nn(C)c(C(F)(F)F)c3c2)CC1 [US20240246981, Example 41] |  | 8.05 |
| Cn1cnnc1C1(F)CCN(c2c(C#N)cccc2-c2cnc(=O)n(C)c2)CC1 [US20240246981, Example 58] | 9.00 |  |
| Cn1cnnc1C1CCN(c2c(C#N)cccc2-c2cncc(OC(F)F)c2)CC1 [US20240246981, Example 23] | 7.51 | 6.79 |
| Cn1cnnc1C1CCN(c2c(C#N)cccc2-c2cnc(F)c(OC(F)F)c2)CC1 [US20240246981, Example 37] | 8.10 | 7.55 |
